Reference: patent US20240139219A1, “COMBINATION OF A SERCA2 INHIBITOR AND A STING ACTIVATOR FOR USE IN TREATING AND/OR PREVENTING CANCER” (Centre national de la recherche scientifique, priority 2021, published 2024)

Columns and labels:
mice = assay: In vivo toxicity, subcutaneous injection, macroscopic observation of skin at the injection site; conditions: 3 times one injection every 3 day, TA 50 nM, ADUS-100 5 μM, or both (Combi), data not shown
KPC cells = assay: CellTiter-Glo Luminescent Cell Viability Assay in KPC cells; type: cell-based, murine; conditions: ADUS-100 5 μM, TA 12.5 nM or 6.25 nM, single or combined, viability 24 h after treatment (FIG. 7B)
Method: (§1) FIG. 7: Inhibition of SERCA2 (ATP2A2) in combination of STING agonist increases inflammatory responses in cancer cell lines. • (A) The KPC murine pancreatic cell line was cultured 24 h prior to 6 h stimulation with ADUS-100 (5 μM) in combination or not with 12.5 nM or 6.25 nM TA. Graphs present fold increase Cxcl10 mRNA levels, an interferon responding gene, as compared to unstimulated cells. • (B) KPC cells were cultured 24 h prior 6 h stimulation with ADUS-100 (5 μM) in combination or not with 12.5 nM or 6.25 nM TA. Graphs present viability level, as compared to unstimulated cells. • (C) The Panco2 murine pancreatic cell line was cultured 24 h prior to 6 h stimulation with ADUS-100 (5 μM) in combination or not with 12.5 nM or 6.25 nM TA. Graphs present fold increase Cxcl10 mRNA levels, an interferon responding gene, as compared to unstimulated cells. • (D) Panco2 cells were cultured 24 h prior to 6 h stimulation with ADUS-100 (5 μM) in combination or not with 12.5 nM or 6.25 nM TA. Graphs present viability level, as compared to unstimulated cells.
(§2) Murine embryonic fibroblasts (MEF) and murine pancreatic cancer cell lines (KPC and Panc02) were maintained in Dulbecco's modified Eagle's medium (DMEM) supplemented with 10% fetal bovine serum (FBS), 1% penicillin/streptomycin and 1% glutamine. […]

Panc02 cells = assay: CellTiter-Glo Luminescent Cell Viability Assay in Panc02 cells; type: cell-based, murine; conditions: ADUS-100 5 μM, TA 12.5 nM or 6.25 nM, single or combined, viability 24 h after treatment (FIG. 7D)
Method: as §1, §2

[1] = test system: mouse embryonic fibroblasts (MEFs); assay: CellTiter-Glo Luminescent Cell Viability Assay in MEFs; type: cell-based; conditions: MEF; ADUS-100 5 μM, TA 12.5 nM or 6.25 nM, single or combined; viability 24 h after treatment (FIG. 6B)
Method: (§3) FIG. 6: Inhibition of SERCA2 (ATP2A2) in combination with STING agonist increases inflammatory responses in mouse embryonic fibroblasts (MEFs). • (A) MEFs were cultured for 24 h prior to 6 h stimulation with ADUS-100 (5 μM) in combination or not with 12.5 nM or 6.25 nM of thapsigargin (TA). Graphs present fold increase lfnβ mRNA levels, as compared to unstimulated cells. • (B) MEFs were cultured for 24 h prior to 6 h stimulation with ADUS-100 (5 μM) in combination or not with 12.5 nM or 6.25 nM of TA. Graphs present viability level, as compared to unstimulated cells.
(§4) Murine embryonic fibroblasts (MEF) and murine pancreatic cancer cell lines (KPC and Panc02) were maintained in Dulbecco's modified Eagle's medium (DMEM) supplemented with 10% fetal bovine serum (FBS), 1% penicillin/streptomycin and 1% glutamine.
(§5) Cells were treated during 6 h with ADUS-100 (5 μM) in presence or not of thapsigargin (TA) at 12.5 nM or 6.25 nM in complete medium.
The CellTiter-Glo® Luminescent Cell Viability Assay was used to determine the number of viable cells 24 h after treatment.

WT-MEF cells = assay: RT-qPCR of Ifnβ, Cxcl10 and Isg15 mRNA in WT-MEF stimulated with DMXAA; type: cell-based, murine; conditions: WT-MEF under DMXAA stimulation (200 μM, 2 h) in combination with CDN-1163 (FIG. 4A)
Method: WT-MEF cells were cultured 24 h prior 2h stimulation with DMXAA (200 μM) in combination or not with CPA (A-C) or thapsigargin (D-E). Graphs present fold increase Ifnβ, Cxcl10 and Isg15 mRNA levels, as compared to unstimulated cells. Graphs present mean value from duplicates.
WT-MEF cells were cultured 24 h prior 2 h stimulation with DMXAA (200 μM) in combination or not with CDN-1163 (A-C). Graphs present fold increase […], Cxcl10 and Isg15 mRNA levels, as compared to unstimulated cells. Graphs present mean value from duplicates.
(§6) Wild type murine embryonic fibroblasts (WT-MEF) and MEF-Trex^−/−, were maintained in Dulbecco's modified Eagle's medium (DMEM) supplemented with 10% fetal bovine serum (FBS), 1% penicillin/streptomycin and 1% glutamine.
(§7) RNA was extracted using Trizol (Invitrogen) and treated with TURBO DNase (Ambion) according to manufacturer's protocols. Reverse transcription (SuperScript IV reverse transcriptase, Invitrogen) and qPCR using specific primers were performed using SYBR Green Master Mix (Takara) and LightCycler 480 cycler (Roche). mRNA levels were normalized to HSP90 mRNA levels. […]
To this aim, WT-MEFs were treated with the CDN-1163 SERCA2 agonist, and interferon response gene levels were assessed (FIG. 4).

SERCA2 = SERCA2 (Homo sapiens, UniProt P16615); conditions: read-out: IC50 in vitro for SERCA2 (for calcium entry); cited from earlier work
Trex1 KO MEFs = assay: RT-qPCR of Ifnβ, Cxcl10 and Isg15 mRNA in Trex1 KO MEF (model of chronic STING activation); type: cell-based, murine; conditions: Trex1-deficient MEF, 2 h treatment (FIG. 2)
Method: MEF^Trexl−/− cells were treated or not with CPA (A-C) or thapisgargin (D-E) for 2 h. Graphs present fold increase Ifnβ, Cxcl10 and Isg15 mRNA levels, as compared to unstimulated cells. Graphs present mean value from duplicates (A-C) or average of 2 independent experiments (D-F). Error bars: standard deviation.
as §6
RNA was extracted using Trizol (Invitrogen) and treated with TURBO DNase (Ambion) according to manufacturer's protocols. Reverse transcription (SuperScript IV reverse transcriptase, Invitrogen) and qPCR using specific primers were performed using SYBR Green Master Mix (Takara) and LightCycler 480 cycler (Roche). mRNA levels were normalized to HSP90 mRNA levels.
WT-MEF stimulated or not with DMXAA, a murine STING ligand which triggers STING-dependent inflammatory responses (FIG. 1); and Trex I KO MEF which is a model of chronic STING activation (FIG. 2).
WT-MEF or Trex I KO MEF were treated for 2 h with SERCA2 inhibitors thapsigargin (TA) or CPA.

[2] = test system: mouse embryonic fibroblasts (MEFs); assay: RT-qPCR of Ifnβ mRNA in MEFs stimulated with ADUS-100 with or without thapsigargin; type: cell-based; conditions: MEF, 6 h, TA 12.5 nM or 6.25 nM in combination with ADU-S100 5 μM (FIG. 6A)
Method: as §3, §4, §5, §7

[3] = test system: Panc02 murine pancreatic cell line; assay: RT-qPCR of Cxcl10 mRNA in Panc02 cells stimulated with ADUS-100 with or without thapsigargin; type: cell-based; conditions: Panc02, 6 h, TA 12.5 nM or 6.25 nM in combination with ADU-S100 5 μM (FIG. 7C)
Method: as §1, §2

[4] = test system: KPC murine pancreatic cell line; assay: RT-qPCR of Cxcl10 mRNA in KPC cells stimulated with ADUS-100 with or without thapsigargin; type: cell-based; conditions: 6 h, TA 12.5 nM or 6.25 nM in combination with ADU-S100 5 μM (FIG. 7A)
Method: as §1, §2

Chain of SERCA2 (P16615 whole entry): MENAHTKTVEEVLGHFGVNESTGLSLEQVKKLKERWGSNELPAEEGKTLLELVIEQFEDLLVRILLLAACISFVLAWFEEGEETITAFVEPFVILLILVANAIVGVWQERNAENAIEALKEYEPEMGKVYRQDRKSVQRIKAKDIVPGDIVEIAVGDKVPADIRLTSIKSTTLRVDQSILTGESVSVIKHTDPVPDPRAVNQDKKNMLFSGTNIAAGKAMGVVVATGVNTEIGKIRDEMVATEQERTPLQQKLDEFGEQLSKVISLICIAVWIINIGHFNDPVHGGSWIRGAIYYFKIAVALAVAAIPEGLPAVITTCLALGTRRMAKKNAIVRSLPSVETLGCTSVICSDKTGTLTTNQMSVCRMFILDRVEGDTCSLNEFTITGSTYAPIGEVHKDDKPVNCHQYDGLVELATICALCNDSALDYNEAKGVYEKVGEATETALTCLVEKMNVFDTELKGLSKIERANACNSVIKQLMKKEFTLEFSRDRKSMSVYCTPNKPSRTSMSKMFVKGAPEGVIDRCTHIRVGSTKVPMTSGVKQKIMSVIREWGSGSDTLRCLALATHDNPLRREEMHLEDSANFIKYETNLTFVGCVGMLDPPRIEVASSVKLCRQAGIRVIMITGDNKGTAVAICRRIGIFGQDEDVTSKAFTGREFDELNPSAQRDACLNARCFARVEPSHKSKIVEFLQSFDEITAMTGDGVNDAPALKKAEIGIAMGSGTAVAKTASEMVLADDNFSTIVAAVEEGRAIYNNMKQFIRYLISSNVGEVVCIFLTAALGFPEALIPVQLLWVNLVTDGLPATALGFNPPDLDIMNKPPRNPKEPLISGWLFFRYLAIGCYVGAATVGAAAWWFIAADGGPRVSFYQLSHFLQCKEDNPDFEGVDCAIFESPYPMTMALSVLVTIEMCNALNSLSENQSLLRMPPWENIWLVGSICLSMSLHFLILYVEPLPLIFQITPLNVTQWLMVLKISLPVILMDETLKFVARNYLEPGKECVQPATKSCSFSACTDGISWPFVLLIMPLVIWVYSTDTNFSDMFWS

Compound	macroscopic observation of skin at the injection site (signs of toxicity) (mice)	cell toxicity (viability level) (KPC cells)	cell toxicity (viability level) (Panc02 cells)	cell toxicity (viability level) [1]	IFN-β gene expression (WT-MEF cells)	IC50 (SERCA2)	CXCL10 mRNA levels (Trex1 KO MEFs)	IFN-β mRNA levels (Trex1 KO MEFs)	ISG15 mRNA levels (Trex1 KO MEFs)	induced inflammation marker Interferon-β (IFN-β) [2]	induced inflammation marker CXCL10 cytokine [3]	induced inflammation marker CXCL10 cytokine [4]
Nc1ncnc2c1ncn2[C@@H]1O[C@@H]2COP(=O)([S-])O[C@@H]3[C@H](O)[C@@H](COP([O-])(=S)O[C@H]2[C@H]1O)O[C@H]3n1cnc2c(N)ncnc21.[Na+].[Na+] (some centres unmarked) [ADU-S100]	did not display signs of toxicity	low cell toxicity	low cell toxicity	low cell toxicity								
Cc1ccc2cccc(NC(=O)c3ccc(OC(C)C)cc3)c2n1 [CDN-1163, N-(2-methylquinolin-8-yl)-4-propan-2-yloxybenzamide]					inhibits							
CC(=O)C1=C(O)[C@@H]2[C@H]3c4c[nH]c5cccc(c45)C[C@H]3C(C)(C)N2C1=O [CPA, (6aR,11aS,11bR)-10-Acetyl-11-hydroxy-7,7-dimethyl-2,6,6a,7,11a,11b-hexahydro-9H-pyrrolo[1′,2′:2,3]isoindolo[4,5,6-cd]indol-9-one]						< 2.5 µM	increase	increase	increase			
C/C=C(/C)C(=O)O[C@H]1C(C)=C2[C@H]([C@@H]1OC(=O)CCCCCCC)[C@@](C)(OC(C)=O)C[C@H](OC(=O)CCC)[C@@]1(O)[C@H]2OC(=O)[C@@]1(C)O [Thapsigargin, (3S,3aR,4S,6S,6aR,7S,8S,9bS)-6-(Acetyloxy)-4-(butyryloxy)-3,3a-dihydroxy-3,6,9-trimethyl-8-{[(2Z)-2-methylbut-2-enoyl]oxy}-2-oxo-2,3,3a,4,5,6,6a,7,8,9b-decahydroazuleno[4,5-b]furan-7-yl octanoate]	did not display signs of toxicity	low cell toxicity	low cell toxicity	low cell toxicity		< 0.015 µM	increase	increase	increase	potentiation	potentiation	potentiation
